Where two headings read alike, the source gives them in different places.
Key:
[1] = target: T1, human recombinant HDAC1 (Homo sapiens, UniProt Q13547); experiment: HDAC1 enzyme activity inhibition (HDAC Fluorimetric Drug Discovery Kit); format: biochemical; conditions: read-out: HDAC1
T1 construct: purchased Enzo Life Science, Inc. BML-SE456
Method in brief: (§1)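 Fluorimetric deacetylase read-out. 5-fold compound dilutions; […] enzyme, 10 μM substrate; 30° C, 60 min; developer 30 min.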

[2] = target: T2, human recombinant HDAC6 (Homo sapiens, UniProt Q9UBN7); experiment: HDAC6 enzyme activity inhibition (HDAC Fluorimetric Drug Discovery Kit); format: biochemical
T2 construct: purchased Calbiochem Inc. 382180
T2 sequence (Q9UBN7 1-1215): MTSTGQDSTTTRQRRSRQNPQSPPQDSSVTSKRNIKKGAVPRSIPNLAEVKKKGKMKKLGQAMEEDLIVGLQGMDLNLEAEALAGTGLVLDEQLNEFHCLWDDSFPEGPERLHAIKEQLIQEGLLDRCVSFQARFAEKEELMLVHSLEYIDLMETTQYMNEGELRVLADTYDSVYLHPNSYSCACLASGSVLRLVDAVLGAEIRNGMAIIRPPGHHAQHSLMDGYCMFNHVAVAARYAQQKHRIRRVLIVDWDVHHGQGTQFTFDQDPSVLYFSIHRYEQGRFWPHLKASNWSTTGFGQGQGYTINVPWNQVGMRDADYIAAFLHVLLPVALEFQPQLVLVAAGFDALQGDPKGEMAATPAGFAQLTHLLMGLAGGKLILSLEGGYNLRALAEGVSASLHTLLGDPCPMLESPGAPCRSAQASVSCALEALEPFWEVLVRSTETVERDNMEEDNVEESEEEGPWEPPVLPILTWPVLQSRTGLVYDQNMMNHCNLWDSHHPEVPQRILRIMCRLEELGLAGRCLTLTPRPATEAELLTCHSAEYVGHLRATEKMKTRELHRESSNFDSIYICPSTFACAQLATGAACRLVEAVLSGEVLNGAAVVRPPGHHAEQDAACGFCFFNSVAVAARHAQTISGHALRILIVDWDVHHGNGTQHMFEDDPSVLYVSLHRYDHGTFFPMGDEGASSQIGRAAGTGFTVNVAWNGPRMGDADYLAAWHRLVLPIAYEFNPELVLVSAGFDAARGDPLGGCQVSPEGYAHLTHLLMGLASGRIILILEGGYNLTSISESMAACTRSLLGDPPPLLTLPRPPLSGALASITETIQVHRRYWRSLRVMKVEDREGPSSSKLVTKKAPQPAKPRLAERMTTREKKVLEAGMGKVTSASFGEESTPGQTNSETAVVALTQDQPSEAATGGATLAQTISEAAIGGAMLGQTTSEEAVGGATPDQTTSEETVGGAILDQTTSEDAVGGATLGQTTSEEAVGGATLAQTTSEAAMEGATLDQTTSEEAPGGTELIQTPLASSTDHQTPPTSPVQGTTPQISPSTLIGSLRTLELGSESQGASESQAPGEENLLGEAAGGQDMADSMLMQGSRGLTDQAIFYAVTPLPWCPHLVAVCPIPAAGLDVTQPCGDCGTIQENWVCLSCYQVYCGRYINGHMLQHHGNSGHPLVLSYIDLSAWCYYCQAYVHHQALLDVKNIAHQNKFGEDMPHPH
Method in brief: as §1

[3] = human recombinant HDAC1, IC50 calculated with GraphPad Prism
[4] = human recombinant HDAC6, IC50 calculated with GraphPad Prism
[5] = human recombinant HDAC1, Fluor de Lys substrate, 30° C. 60 minutes
[6] = human recombinant HDAC6, same protocol as HDAC1

T1 sequence (Q13547 whole entry): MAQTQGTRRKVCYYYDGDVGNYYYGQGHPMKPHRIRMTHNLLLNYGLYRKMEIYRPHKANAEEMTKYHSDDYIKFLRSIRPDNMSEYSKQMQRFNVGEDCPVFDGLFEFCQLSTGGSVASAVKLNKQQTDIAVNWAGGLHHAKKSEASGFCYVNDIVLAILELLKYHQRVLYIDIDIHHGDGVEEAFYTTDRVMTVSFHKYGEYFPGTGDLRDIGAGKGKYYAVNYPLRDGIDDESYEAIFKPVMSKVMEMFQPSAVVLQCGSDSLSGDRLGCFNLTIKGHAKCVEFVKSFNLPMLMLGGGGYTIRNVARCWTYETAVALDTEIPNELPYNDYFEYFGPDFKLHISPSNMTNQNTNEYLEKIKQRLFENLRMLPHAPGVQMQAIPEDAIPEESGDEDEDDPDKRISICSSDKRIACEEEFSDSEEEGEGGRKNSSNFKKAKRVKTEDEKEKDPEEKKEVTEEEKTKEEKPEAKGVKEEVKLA

`Fc1cc(-c2nnc(C(F)F)o2)ccc1Cn1cc(-c2ccc(CN3CCC(F)(F)CC3)cc2)nn1` [Compound 4472, 2-(difluoromethyl)-5-(4-((4-(4-((4,4-difluoropiperidin-1-yl)methyl)phenyl)-1H-1,2,3-triazol-1-yl)methyl)-3-fluorophenyl)-1,3,4-oxadiazole] was tested, and the IC50 [1, 3] was greater than 50000 nM, the “HDAC6 selectivity (fold)” value ([2]; HDAC1 IC50 / HDAC6 IC50) was 407 fold and the IC50 [2, 4] was 123 nM.
In the case of `CCN1CCN(c2cccc(-c3cn(Cc4ccc(-c5nnc(C(F)F)o5)cn4)nn3)c2)CC1` [Compound 3988, 2-(difluoromethyl)-5-(6-((4-(3-(4-ethylpiperazin-1-yl)phenyl)-1H-1,2,3-triazol-1-yl)methyl)pyridin-3-yl)-1,3,4-oxadiazole], the IC50 [1, 3] is reported as greater than 50000 nM, the “HDAC6 selectivity (fold)” value ([2]; HDAC1 IC50 / HDAC6 IC50) is reported as 4716 fold and the IC50 [2, 4] is reported as 10.6 nM.
For `FC(F)c1nnc(-c2ccc(Cn3cc([C@@H]4CCCN4C4COC4)nn3)nc2)o1` [Compound 4026, (S)-2-(difluoromethyl)-5-(6-((4-(1-(oxetan-3-yl)pyrrolidin-2-yl)-1H-1,2,3-triazol-1-yl)methyl)pyridin-3-yl)-1,3,4-oxadiazole], the IC50 [1, 3] was greater than 50000 nM, the “HDAC6 selectivity (fold)” value ([2]; HDAC1 IC50 / HDAC6 IC50) was 189 fold and the IC50 [2, 4] was 263 nM.
`CN1CCN(Cc2cccc(-c3cn(Cc4ccc(-c5nnc(C(F)F)o5)cc4)nn3)c2)CC1` [Compound 4414] was tested, and the IC50 [1, 3] was greater than 50000 nM, the “HDAC6 selectivity (fold)” value ([2]; HDAC1 IC50 / HDAC6 IC50) was 627 fold and the IC50 [2, 4] was 79.7 nM.
`CC(C)(C)OC(=O)N1CCCC(c2cn(Cc3ccc(-c4nnc(C(F)F)o4)cn3)nn2)C1` (stereo not drawn) [Compound 3961, Tert-butyl 3-(1-((5-(5-(difluoromethyl)-1,3,4-oxadiazol-2-yl)pyridin-2-yl)methyl)-1H-1,2,3-triazol-4-yl)piperidin-1-carboxylate] was tested, and the IC50 [1, 3] was greater than 50000 nM, the “HDAC6 selectivity (fold)” value ([2]; HDAC1 IC50 / HDAC6 IC50) was 386 fold and the IC50 [2, 4] was 129 nM.
For `CCN1CCN(c2cc(-c3cn(Cc4ccc(-c5nnc(C(F)F)o5)cc4F)nn3)ccn2)CC1` [Compound 4634, 2-(difluoromethyl)-5-(4-((4-(2-(4-ethylpiperazin-1-yl)pyridin-4-yl)-1H-1,2,3-triazol-1-yl)methyl)-3-fluorophenyl)-1,3,4-oxadiazole], the IC50 [1, 5] was greater than 50000 nM, the “HDAC6 selectivity (fold)” value ([2]; HDAC6 over HDAC1) was 2074 fold and the IC50 [2, 6] was 24.1 nM.
With `CCN1CCN(Cc2ccc(-c3cn(Cc4ccc(-c5nnc(C(F)F)o5)cn4)nn3)cc2)CC1` [Compound 4563, 2-(difluoromethyl)-5-(6-((4-(4-((4-ethylpiperazin-1-yl)methyl)phenyl)-1H-1,2,3-triazol-1-yl)methyl)pyridin-3-yl)-1,3,4-oxadiazole] the IC50 [1, 5] was greater than 50000 nM, the “HDAC6 selectivity (fold)” value ([2]; HDAC6 over HDAC1) was 2222 fold and the IC50 [2, 6] was 22.5 nM.
In the case of `CC(C)N1CCC(Nc2ccc(F)c(-c3cn(Cc4ccc(-c5nnc(C(F)F)o5)cc4F)nn3)c2)CC1` [Compound 4436, N-(3-(1-(4-(5-(difluoromethyl)-1,3,4-oxadiazol-2-yl)-2-fluorobenzyl)-1H-1,2,3-triazol-4-yl)-4-fluorophenyl)-1-isopropylpiperidin-4-amine], the IC50 [1, 3] is reported as greater than 50000 nM, the “HDAC6 selectivity (fold)” value ([2]; HDAC1 IC50 / HDAC6 IC50) is reported as 1369 fold and the IC50 [2, 4] is reported as 36.5 nM.
`CN(C)CC(=O)Nc1cccc(-c2cn(Cc3ccc(-c4nnc(C(F)F)o4)cc3)nn2)c1` [Compound 4329, N-(3-(1-(4-(5-(difluoromethyl)-1,3,4-oxadiazol-2-yl)benzyl)-1H-1,2,3-triazol-4-yl)phenyl)-2-(dimethylamino)acetamide] was tested, and the IC50 [1, 3] was greater than 50000 nM, the “HDAC6 selectivity (fold)” value ([2]; HDAC1 IC50 / HDAC6 IC50) was 815 fold and the IC50 [2, 4] was 61.3 nM.
In the case of `FC(F)c1nnc(-c2ccc(Cn3cc(C4CN(C5CCC5)C4)nn3)nc2)o1` [Compound 3954, 2-(6-((4-(1-cyclobutylazetidin-3-yl)-1H-1,2,3-triazol-1-yl)methyl)pyridin-3-yl)-5-(difluoromethyl)-1,3,4-oxadiazole], the IC50 [1, 3] is reported as greater than 50000 nM, the “HDAC6 selectivity (fold)” value ([2]; HDAC1 IC50 / HDAC6 IC50) is reported as 116 fold and the IC50 [2, 4] is reported as 429 nM.
For `CC(C)N1CCN(c2cc(-c3cn(Cc4ccc(-c5nnc(C(F)F)o5)cc4)nn3)ccc2F)CC1` [Compound 4421, 2-(difluoromethyl)-5-(4-((4-(4-fluoro-3-(4-isopropylpiperazin-1-yl)phenyl)-1H-1,2,3-triazol-1-yl)methyl)phenyl)-1,3,4-oxadiazole], the IC50 [1, 3] was greater than 50000 nM, the “HDAC6 selectivity (fold)” value ([2]; HDAC1 IC50 / HDAC6 IC50) was 202 fold and the IC50 [2, 4] was 247 nM.
For `CN(C)C(C)(C)C(=O)Nc1cccc(-c2cn(Cc3ccc(-c4nnc(C(F)F)o4)cn3)nn2)c1` [Compound 4231, N-(3-(1-((5-(5-(difluoromethyl)-1,3,4-oxadiazol-2-yl)pyridin-2-yl)methyl)-1H-1,2,3-triazol-4-yl)phenyl)-2-(dimethylamino)-2-methylpropanamide], the IC50 [1, 3] was greater than 50000 nM, the “HDAC6 selectivity (fold)” value ([2]; HDAC1 IC50 / HDAC6 IC50) was 914 fold and the IC50 [2, 4] was 54.7 nM.
For `CN1CC(NC(=O)c2cccc(-c3cn(Cc4ccc(-c5nnc(C(F)F)o5)cn4)nn3)c2)C1` [Compound 4480, 3-(1-((5-(5-(difluoromethyl)-1,3,4-oxadiazol-2-yl)pyridin-2-yl)methyl)-1H-1,2,3-triazol-4-yl)-N-(1-methylazetidin-3-yl)benzamide], the IC50 [1, 3] was greater than 50000 nM, the “HDAC6 selectivity (fold)” value ([2]; HDAC1 IC50 / HDAC6 IC50) was 1388 fold and the IC50 [2, 4] was 36 nM.
`O=C(c1cccc(-c2cn(Cc3ccc(-c4nnc(C(F)F)o4)cn3)nn2)c1)N1CCCC1` [Compound 3829, (3-(1-((5-(5-(difluoromethyl)-1,3,4-oxadiazol-2-yl)pyridin-2-yl)methyl)-1H-1,2,3-triazol-4-yl)phenyl)(pyrrolidin-1-yl)methanone] was tested, and the IC50 [1, 3] was greater than 50000 nM, the “HDAC6 selectivity (fold)” value ([2]; HDAC1 IC50 / HDAC6 IC50) was 1655 fold and the IC50 [2, 4] was 30.2 nM.
With `FC(F)c1nnc(-c2ccc(Cn3cc(-c4ccc5c(c4)CN(C4CCC4)CC5)nn3)nc2)o1` [Compound 4212, 2-(6-((4-(2-cyclobutyl-1,2,3,4-tetrahydroisoquinolin-7-yl)-1H-1,2,3-triazol-1-yl)methyl)pyridin-3-yl)-5-(difluoromethyl)-1,3,4-oxadiazole] the IC50 [1, 3] was greater than 50000 nM, the “HDAC6 selectivity (fold)” value ([2]; HDAC1 IC50 / HDAC6 IC50) was 1602 fold and the IC50 [2, 4] was 31.2 nM.
For `CCN1CCN(Cc2ccc(-c3cn(Cc4ccc(-c5nnc(C(F)F)o5)cc4F)nn3)cc2)CC1` [Compound 4474, 2-(difluoromethyl)-5-(4-((4-(4-((4-ethylpiperazin-1-yl)methyl)phenyl)-1H-1,2,3-triazol-1-yl)methyl)-3-fluorophenyl)-1,3,4-oxadiazole], the IC50 [1, 3] was greater than 50000 nM, the “HDAC6 selectivity (fold)” value ([2]; HDAC1 IC50 / HDAC6 IC50) was 1213 fold and the IC50 [2, 4] was 41.2 nM.
`CCN1CC(N2CCC(c3cccc(-c4cn(Cc5ccc(-c6nnc(C(F)F)o6)cc5F)nn4)c3)CC2)C1` [Compound 4295, 2-(difluoromethyl)-5-(4-((4-(3-(1-(1-ethylazetidin-3-yl)piperidin-4-yl)phenyl)-1H-1,2,3-triazol-1-yl)methyl)-3-fluorophenyl)-1,3,4-oxadiazole] was tested, and the IC50 [1, 3] was greater than 50000 nM, the “HDAC6 selectivity (fold)” value ([2]; HDAC1 IC50 / HDAC6 IC50) was 1106 fold and the IC50 [2, 4] was 45.2 nM.
In the case of `CN(C)Cc1ccc(-c2cn(Cc3ncc(-c4nnc(C(F)F)o4)cc3F)nn2)cc1F` [Compound 18949, 1-(4-(1-((5-(5-(difluoromethyl)-1,3,4-oxadiazol-2-yl)-3-fluoropyridin-2-yl)methyl)-1H-1,2,3-triazol-4-yl)-2-fluorophenyl)-N,N-dimethylmethanamine], the IC50 [1, 5] is reported as greater than 50000 nM, the “HDAC6 selectivity (fold)” value ([2]; HDAC6 over HDAC1) is reported as 759 fold and the IC50 [2, 6] is reported as 65.8 nM.

From patent US20230257372A1 (CHONG KUN DANG PHARMACEUTICAL CORP., priority 2020, published 2023)
